Data published in paper PMC11207111, “Assessment of the Activity of Nitroisoxazole Derivatives against Trypanosoma cruzi” (Molecules, 2024).

Key:
Vero mammalian cells = assay: Cytotoxicity (MTT) on Vero cells; format: cell-based; conditions: Chlorocebus sabaeus, 24 h
Description: Additionally, the cytotoxicity of the compounds on VERO mammalian cells was assessed (Table 4). […] It is observed that the majority of the derivatives present considerable cytotoxicity. […] RPMI 1640 medium) for 24 h. […] The effects of the compounds on trypomastigote and Vero cell viability were evaluated by tetrazolium salt reduction assay (MTT). […] The plates were kept overnight at 37 °C (28 °C for epimastigotes), and the optical density (OD) was determined using a 96-well microplate reader (Vantaa, Finland) at 570 nm. Under these conditions, the OD is directly proportional to each well’s viable number of cells. The experiments were performed in triplicate across three different assays.

T. cruzi trypomastigotes = assay: Generation of ROS (DCFH2-DA fluorescent probe); format: cell-based, Trypanosoma cruzi; conditions: 100 µM; for ROS generation (DCF fluorescence intensity): 40 min, vs control without compound
Description: To generate radical species on T. cruzi trypomastigotes, intracellular free radicals were determined using the fluorescent probe dichlorofluorescein (DCF).
The cultures were incubated with a 20 µM DCFH2-DA solution for 15 min at 28 °C. Then, they were centrifuged at 3500 rpm and washed 2 times with phosphate buffer saline (PBS) pH 7.4. Cells loaded with DCFH2-DA were transferred to a Nunc® fluorescence 96-well plate (Thermo Fisher Scientific Inc., Waltham, MA, USA), where the nitroisoxazoles derivates were added at 100 µM. Fluorescence (exi: 488 nm, emi: 528 nm) was recorded for 40 min in a BioTek (Winooski, VT, USA) Synergy HT spectrofluorometer. The area under increase curves over time was determined using Oring 8 software, with areas normalized to control. Results are the means ± SD of three independent experiments.

[1] = test system: epimastigote of T. cruzi Dm28; assay: Trypanocidal activity (MTT) on epimastigotes; format: cell-based; conditions: Trypanosoma cruzi; for killing at 100 µM: 24 h, n.a = not active, read-out: % T. cruzi Epimastigote (trypanocidal effect); for IC50: T. cruzi Dm28, 24 h, read-out: IC50 T. cruzi E (epimastigote)
Description: As a preliminary step, a study of nitroisoxazole derivatives on the epimastigote form of T. cruzi was performed. Despite the epimastigote form not being a clinical form present in mammals, its easy handling has allowed screening for the trypanocidal activity of various compounds. It is worth noting that, during the intracellular life cycle of the parasite, a form similar to the epimastigote, which is biochemically and morphologically identical to the form present in the vector, has been described. […] RPMI 1640 medium) for 24 h. […] The effects of the compounds on trypomastigote and Vero cell viability were evaluated by tetrazolium salt reduction assay (MTT). […] The plates were kept overnight at 37 °C (28 °C for epimastigotes), and the optical density (OD) was determined using a 96-well microplate reader (Vantaa, Finland) at 570 nm. Under these conditions, the OD is directly proportional to each well’s viable number of cells. The experiments were performed in triplicate across three different assays.

[2] = Cyclic voltammetry (reduction of the nitro group); format: physicochemical; parameters: key to −EpcI / −EpcII / −EpaII / −EpaI: potentials in V vs Ag/AgCl; |ΔEp|: unit not given here
Excerpt: The chemistry mechanism of reduction in nitroisoxazole derivatives was investigated using cyclic voltammetry.
The peak near −1.32 V corresponds to a quasi-reversible one-electron transfer, according to the criteria of Nicholson–Shain [26] (Table 1), attributable to the species −NO2/NO2.− . The latter species stable anion radical at room temperature. […] An irreversible peak at −0.93 V to the mono-electronic transfer −HNO2/HNO2.− is observed, coupled with a chemical reaction associated with […] of the formed radical. This was evidenced by the addition of NaOH (1 M), which caused a decrease in the Ic peak (Figure 2c).
As previously described, an irreversible signal assigned to hydroxylamine oxidation to a nitroso derivative is also observed for N-acylhydrazones organometallic compounds with a pendant 5-nitrofuryl group. […] Compound 7, which has the least negative reduction potential, can be attributed to introducing a nitro group in the para position of the nitroisoxazole ring. This effect can also be observed in derivatives containing halogens in the same position.
Electrochemical characterization of the new compounds was performed through cyclic voltammetry (CV) on a 693 VA Metrohm instrument (Tokyo, Japan) equipped with a 694 VA Stand converter and 693 VA processor. Potentials were recorded against the Ag/AgCl reference electrode; a hanging drop of mercury (HDME) was used as a working electrode, and platinum was used as an auxiliary electrode. Tetrabutylammonium perchlorate (TBAP, 0.1 M) in DMSO was used as a supporting electrolyte under an N2 atmosphere at room temperature. Using Nicholson´s procedure, the Ipa/Ipc values (RNO2/RNO2^−) were measured from each cyclic voltammogram with a scan rate between 0.1 and 2.5 V/s.

[3] = ORAC-FL antioxidant capacity; conditions: relative to Trolox; phosphate buffer 75 mM, pH 7.4, 37 °C
Description: To corroborate the generation of the nitro radical, the antioxidant capacity of the series under study was determined by ORAC-FL methodology, employing a fluorescent probe to capture oxygen-centered radicals (Table 2). The ORAC-FL values of the studied compounds are close to the reference value of Trolox, indicating a low antioxidant capacity. For compounds (1-3), the presence of amino substituents decreases antioxidant activity due to their […] characteristics, preventing the presence of labile hydrogens. […] Compounds 4 and 10 present similar ORAC indexes as aromatic rings with high electron density insert the transfer of labile protons. Antioxidant capacity was determined using the ORAC-fluorescence methodology (ORAC-FL). The analysis used a 96-well white polystyrene plate reader (EnSpire multimode PerkinElmer, Waltham, MA, USA). The reaction was carried out in phosphate buffer (75 mM, pH 7.4). […] A blank with FL and AAPH, using dimethyl sulfoxide instead of the antioxidant solution, was used in each assay. […] The inhibitor capacity was expressed as ORAC-FL values and quantified by integrating the area under the curve (AUCNET). All reaction mixtures were prepared in triplicate, and at least three independent assays were performed for each sample. The area under the fluorescence decay curve (AUC) was calculated by integrating the fluorescence decay where F0 is the initial fluorescence read at 0 min, and F is the fluorescence read at the time. The AUCNET corresponding to the sample was calculated by subtracting the AUC corresponding to the blank. Data were processed using Origin […].5 SR2 (San Francisco, CA, USA). The ORAC-FL indices were calculated according to the following Equation (1): (1) ORAC-[…]]

[4] = test system: trypomastigote of T. cruzi Dm28; assay: Trypanocidal activity (MTT) on trypomastigotes; format: cell-based; conditions: Trypanosoma cruzi; for killing at 100 µM: 24 h, n.a = not active, read-out: % T. cruzi Trypomastigote (trypanocidal effect); for IC50: T. cruzi Dm28, 24 h
Description: As a preliminary step, a study of nitroisoxazole derivatives on the epimastigote form of T. cruzi was performed. Despite the epimastigote form not being a clinical form present in mammals, its easy handling has allowed screening for the trypanocidal activity of various compounds. It is worth noting that, during the intracellular life cycle of the parasite, a form similar to the epimastigote, which is biochemically and morphologically identical to the form present in the vector, has been described. […] This is consistent with studies by Fonseca-Berzal et al. […] Additionally, compounds with higher activity have aromatic rings as substituents for nitroisoxazoles, confirming what was described Do […] [40]. […] It has also been determined that the presence of an isoxazole is essential for activity, as its aromatic structure contains a weak nitrogen-oxygen bond that, under different reaction conditions, can undergo ring cleavage, increasing activity. The results obtained on epimastigotes cannot be conclusive for determining potential Chagas agents, so conducting studies on the infective, extracellular, non-replicative trypomastigote form of T. cruzi present in humans is essential. […] RPMI 1640 medium) for 24 h. […] The effects of the compounds on trypomastigote and Vero cell viability were evaluated by tetrazolium salt reduction assay (MTT). […] The plates were kept overnight at 37 °C (28 °C for epimastigotes), and the optical density (OD) was determined using a 96-well microplate reader (Vantaa, Finland) at 570 nm. Under these conditions, the OD is directly proportional to each well's viable number of cells. The experiments were performed in triplicate across three different assays.

[5] = cyclic voltammetry at 2.0 V/s, DMSO, 0.1 M TBAP, vs Ag/AgCl

SMILES	IC50 (Vero mammalian cells) [µM]	ROS generation (DCF fluorescence intensity) (T. cruzi trypomastigotes)	killing at 100 µM [1] [%]	IC50 [1] [µM]	Ipa/Ipc ([2]; cyclic voltammetry at 2.0 V/s)	|ΔEp| ([2]; cyclic voltammetry at 2.0 V/s)	−EpaII [2, 5]	−EpcII [2, 5]	ORAC-FL Index [3]	melting point	killing at 100 µM [4] [%]	IC50 [4] [µM]	ROS generation compared with Nfx (T. cruzi trypomastigotes; Figure 3)	−EpcI [2, 5]	irreversible peak potential, mono-electronic transfer −HNO2/HNO2.− ([2]; cyclic voltammogram, Figure 2b) [V]	−EpaI [2, 5]	IIIc couple potential (formation of a hydroxylamine derivative) ([2]; cyclic voltammogram, Figure 2d) [V]
Cc1noc(/C=C/N2CCCCC2)c1[N+](=O)[O-] [Compound 3, (E)-3-Methyl-4-nitro-5-(2-(piperidin-1-yl)vinyl)isoxazole]	> 400	increase in fluorescence intensity	17 ± 5	> 400	−0.19	100	1.19	1.29	0.52 ± 0.05	151 to 153 °C	20 ± 2	> 400	–	–	–	–	–
Cc1noc(/C=C/c2ccc(F)cc2)c1[N+](=O)[O-] [Compound 5, (E)-5-(4-Fluorostyryl)-3-methyl-4-nitroisoxazole]	> 400	increase in fluorescence intensity	47 ± 1	400 ± 3	−0.02	110	0.71	0.82	0.74 ± 0.05	169 to 171 °C	19 ± 3	> 400	more reactive oxygen species (ROS) than Nfx	–	–	–	–
Cc1noc(/C=C/c2ccc(O)c(O)c2)c1[N+](=O)[O-] [Compound 8, (E)-4-(2-(3-Methyl-4-nitroisoxazol-5-yl)vinyl)benzene-1,2-diol]	398.1 ± 0.3	did not show ROS generation	32 ± 5	> 400	−0.34	150	1.02	1.17	1.0 ± 0.1	270 °C (dec.)	16 ± 2	> 400	–	0.93	−0.93	–	–
COc1cc(/C=C/c2onc(C)c2[N+](=O)[O-])ccc1O [Compound 9, (E)-2-Methoxy-4-(2-(3-methyl-4-nitroisoxazol-5-yl)vinyl)phenol]	244.5 ± 0.5	did not show ROS generation	52 ± 4	166 ± 4	−0.17	160	1.07	0.91	0.7 ± 0.2	189 to 191 °C	15 ± 3	400 ± 2	–	0.66	–	0.82	−1.14
CCN(CC)c1ccc2cc(/C=C/c3onc(C)c3[N+](=O)[O-])c(=O)oc2c1 [Compound 11, (E)-7-(Diethylamino)-3-(2-(3-methyl-4-nitroisoxazol-5-yl)vinyl)-2H-chromen-2-one]	125.9 ± 0.1	increase in fluorescence intensity	–	> 400	–	–	–	1.21	0.21 ± 0.01	224 to 226 °C	10 ± 4	400 ± 5	–	0.79	–	–	–
Cc1noc(/C=C/c2cn(-c3ccccc3)c3ccccc23)c1[N+](=O)[O-] [Compound 12, (E)-3-Methyl-4-nitro-5-(2-(1-phenyl-1H-indol-3-yl)vinyl)isoxazole]	141 ± 6	did not show ROS generation	5 ± 2	> 400	−0.36	90	0.87	0.96	0.4 ± 0.1	196 to 199 °C	16 ± 2	> 400	–	–	–	–	–
